Source: patent US10004732B2 (Novartis AG, priority 2014, dated 2018)
pIC50: −log10 of the molar value.

Legend:
PI 4-kinase beta = PI 4-kinase beta (Homo sapiens, UniProt Q9UBF8); assay: Kinase Glo Luminescent Kinase Assay (Kglo), assay D; assay type: biochemical; conditions: read-out: Assay D PI4Kβ IC50
Vps34 = Vps34 (Homo sapiens, UniProt Q8NEB9); assay: Kinase Glo Luminescent Kinase Assay (Kglo), assay C; assay type: biochemical; conditions: read-out: Assay C VPS34 IC50
Experimental: Kinase Glo Luminescent Kinase Assay (Kglo) for Pb 3-Kinase Alpha (A), Pb 3-Kinase Beta (B), Vps34 (C), Pb 4-Kinase Beta (D)
The Kinase Glo Luminescent Kinase Assay (Promega, Madison/Wis., USA) is a homogeneous HTS method of measuring kinase activity by quantifying the amount of ATP remaining in solution following a kinase reaction.
L-α-phosphatidylinositol (PI), provided as 10 mg/ml solution in methanol, was transferred into a glass tube and dried under a nitrogen beam. It was then resuspended in 3% OctylGlucoside (1-0-n-octyl-beta-D-glucopyranoside) by vortexing and stored at 4° C. 5 μL of a mix of PI/OctylGlucoside with the PI 3-kinase alpha and PI 3-kinase beta subtypes, or Vps34 or PI 4-kinase beta were added. Kinase reactions were started by the addition of 5 μl of an ATP-mix containing in a final volume 10 μL 10 mM TRIS-HCl pH 7.5, 3 mM MgCl2, 50 mM NaCl, 0.05% CHAPS, 1 mM DTT and 1 μM ATP at room temperature.
All fits were performed with the program XLfit4 (ID Business Solutions, Guildford, UK).

PI 3-kinase beta [1] = target: T1, PI 3-kinase beta (Homo sapiens, UniProt P42338); assay: Cellular assay I1, p-Akt (S473) in Rat-1 cells, Surefire format; assay type: cell-based; conditions: non-asterisked data: version I1 (Surefire format), Rat-1 cells; read-out: Assay I PI3Kβ IC50
PI 3-kinase beta [2] = target: T1, PI 3-kinase beta; assay: Kinase Glo Luminescent Kinase Assay (Kglo), assay B; assay type: biochemical; conditions: read-out: Assay B PI3Kβ IC50
mTOR = mTOR (Homo sapiens, UniProt P42345); assay: Lanthascreen kinase binding assay, assay G; conditions: read-out: Assay G mTOR IC50
Experimental: Lanthascreen™ Kinase Binding Assay for mTOR (G)
Binding of an inhibitor to the kinase competes for binding with the tracer, resulting in a loss of FRET.
50 nL of compound dilutions were dispensed onto white 384-well small volume polystyrene plate.

PI 3-kinase delta [3] = target: T2, PI 3-kinase delta (Homo sapiens, UniProt O00329); assay: TR-FRET Adapta assay, assay F
Target sequence in this assay (O00329 whole entry): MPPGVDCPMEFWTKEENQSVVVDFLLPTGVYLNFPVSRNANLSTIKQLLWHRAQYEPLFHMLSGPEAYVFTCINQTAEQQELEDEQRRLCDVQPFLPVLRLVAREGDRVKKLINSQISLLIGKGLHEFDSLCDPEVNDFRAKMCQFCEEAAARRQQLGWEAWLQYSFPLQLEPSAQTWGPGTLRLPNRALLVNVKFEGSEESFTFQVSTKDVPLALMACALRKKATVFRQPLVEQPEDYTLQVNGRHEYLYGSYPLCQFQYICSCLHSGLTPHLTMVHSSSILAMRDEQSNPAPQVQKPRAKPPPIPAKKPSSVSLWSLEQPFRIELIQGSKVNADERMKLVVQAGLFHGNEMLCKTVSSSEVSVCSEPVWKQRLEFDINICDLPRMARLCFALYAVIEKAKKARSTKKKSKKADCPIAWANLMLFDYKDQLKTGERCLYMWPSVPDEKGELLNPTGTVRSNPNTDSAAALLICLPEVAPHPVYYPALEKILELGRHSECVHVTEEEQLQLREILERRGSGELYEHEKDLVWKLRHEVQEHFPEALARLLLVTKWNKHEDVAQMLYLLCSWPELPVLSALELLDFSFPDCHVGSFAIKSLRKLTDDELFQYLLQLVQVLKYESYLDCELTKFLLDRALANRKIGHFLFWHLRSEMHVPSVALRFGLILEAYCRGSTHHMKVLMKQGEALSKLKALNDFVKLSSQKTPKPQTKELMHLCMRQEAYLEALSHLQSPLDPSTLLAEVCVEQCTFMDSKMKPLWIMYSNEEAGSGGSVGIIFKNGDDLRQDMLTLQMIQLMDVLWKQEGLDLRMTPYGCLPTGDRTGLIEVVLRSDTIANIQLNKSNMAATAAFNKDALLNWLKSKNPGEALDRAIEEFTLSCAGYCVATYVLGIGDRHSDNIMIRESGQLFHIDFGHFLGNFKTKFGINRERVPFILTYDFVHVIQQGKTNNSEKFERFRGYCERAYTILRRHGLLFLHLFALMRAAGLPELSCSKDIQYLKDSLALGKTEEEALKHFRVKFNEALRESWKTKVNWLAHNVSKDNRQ
Target sequence in this assay (P27986 461-568 partner): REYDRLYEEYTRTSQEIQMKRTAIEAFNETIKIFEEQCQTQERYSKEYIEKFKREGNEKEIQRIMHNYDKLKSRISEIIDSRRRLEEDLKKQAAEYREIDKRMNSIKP

PI 3-kinase delta [4] = target: T2, PI 3-kinase delta; assay: Cellular assay J1, p-Akt (S473) in Rat-1 cells, Surefire format; assay type: cell-based; conditions: non-asterisked data: version J1 (Surefire format), Rat-1 cells; read-out: Assay J PI3Kδ IC50
Target sequence in this assay (O00329 whole entry): as the sequence (O00329 whole entry) above
Target sequence in this assay (Q63787 whole entry partner): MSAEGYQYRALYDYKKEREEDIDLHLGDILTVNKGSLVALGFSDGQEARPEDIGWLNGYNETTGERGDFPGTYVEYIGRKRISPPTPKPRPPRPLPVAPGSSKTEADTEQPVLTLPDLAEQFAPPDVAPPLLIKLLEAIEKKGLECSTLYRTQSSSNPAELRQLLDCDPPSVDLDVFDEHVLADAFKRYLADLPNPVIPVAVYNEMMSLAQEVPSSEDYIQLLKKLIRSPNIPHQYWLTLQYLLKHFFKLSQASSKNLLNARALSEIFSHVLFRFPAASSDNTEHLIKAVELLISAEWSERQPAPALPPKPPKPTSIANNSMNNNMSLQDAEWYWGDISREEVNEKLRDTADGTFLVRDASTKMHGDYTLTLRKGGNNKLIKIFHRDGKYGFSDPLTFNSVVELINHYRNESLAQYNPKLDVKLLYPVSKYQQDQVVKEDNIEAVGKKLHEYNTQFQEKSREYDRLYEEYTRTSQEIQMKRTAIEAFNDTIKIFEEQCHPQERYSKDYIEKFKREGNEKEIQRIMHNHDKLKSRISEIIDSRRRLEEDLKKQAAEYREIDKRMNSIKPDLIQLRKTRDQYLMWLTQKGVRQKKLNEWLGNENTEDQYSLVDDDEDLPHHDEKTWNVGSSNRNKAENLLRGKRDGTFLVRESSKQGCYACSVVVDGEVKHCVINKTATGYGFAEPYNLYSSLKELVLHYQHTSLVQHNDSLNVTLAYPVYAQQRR

PI 3-kinase gamma = PI 3-kinase gamma (Homo sapiens, UniProt P48736); assay: TR-FRET Adapta assay, assay E; assay type: biochemical; conditions: read-out: Assay E PI3Kγ IC50
[5] = Microsomal clearance assay (M); conditions: intrinsic clearance in rat liver microsomes
Experimental: The experiments were performed in 96-well glass plates at 37° C. on an automated Tecan EVO platform. Test compounds at a concentration of 10 mM in pure DMSO were diluted 1:1000 in water to 10 μM. […] Reactions were initiated by the addition of 150 μL of a cofactor solution containing 2 mM NADPH.

PI 3-kinase alpha = PI 3-kinase alpha (Homo sapiens, UniProt P42336); assay: Kinase Glo Luminescent Kinase Assay (Kglo), assay A; assay type: biochemical; conditions: read-out: Assay A PI3Kα IC50
PI 3-kinase alpha, sequence (P42336 whole entry): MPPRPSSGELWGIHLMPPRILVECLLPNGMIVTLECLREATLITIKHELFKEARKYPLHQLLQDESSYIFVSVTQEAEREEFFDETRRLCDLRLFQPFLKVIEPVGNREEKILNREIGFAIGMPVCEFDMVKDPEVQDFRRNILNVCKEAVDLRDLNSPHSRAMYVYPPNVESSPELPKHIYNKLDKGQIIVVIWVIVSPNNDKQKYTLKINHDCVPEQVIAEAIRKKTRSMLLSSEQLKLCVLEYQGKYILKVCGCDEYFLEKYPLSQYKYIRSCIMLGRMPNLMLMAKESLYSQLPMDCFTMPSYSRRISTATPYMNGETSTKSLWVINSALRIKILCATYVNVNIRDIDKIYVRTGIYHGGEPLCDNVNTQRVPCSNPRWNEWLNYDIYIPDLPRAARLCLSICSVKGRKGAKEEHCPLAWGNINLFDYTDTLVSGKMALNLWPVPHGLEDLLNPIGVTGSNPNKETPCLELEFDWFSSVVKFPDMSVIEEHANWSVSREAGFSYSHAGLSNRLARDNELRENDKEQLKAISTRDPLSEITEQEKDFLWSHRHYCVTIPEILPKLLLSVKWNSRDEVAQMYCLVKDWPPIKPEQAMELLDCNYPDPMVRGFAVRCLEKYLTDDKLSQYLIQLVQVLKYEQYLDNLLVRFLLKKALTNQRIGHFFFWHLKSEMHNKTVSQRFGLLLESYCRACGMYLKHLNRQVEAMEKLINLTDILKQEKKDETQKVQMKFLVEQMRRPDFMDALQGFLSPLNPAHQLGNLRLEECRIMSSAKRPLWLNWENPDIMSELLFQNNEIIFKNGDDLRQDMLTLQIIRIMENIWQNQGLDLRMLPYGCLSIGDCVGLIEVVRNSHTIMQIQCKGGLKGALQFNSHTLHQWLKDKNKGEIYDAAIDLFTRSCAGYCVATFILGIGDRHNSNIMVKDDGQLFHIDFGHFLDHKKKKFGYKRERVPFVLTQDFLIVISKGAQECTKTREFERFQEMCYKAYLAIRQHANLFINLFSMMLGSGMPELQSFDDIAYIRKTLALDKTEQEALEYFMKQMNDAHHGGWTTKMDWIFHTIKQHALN

PI 3-kinase gamma, sequence (P48736 whole entry): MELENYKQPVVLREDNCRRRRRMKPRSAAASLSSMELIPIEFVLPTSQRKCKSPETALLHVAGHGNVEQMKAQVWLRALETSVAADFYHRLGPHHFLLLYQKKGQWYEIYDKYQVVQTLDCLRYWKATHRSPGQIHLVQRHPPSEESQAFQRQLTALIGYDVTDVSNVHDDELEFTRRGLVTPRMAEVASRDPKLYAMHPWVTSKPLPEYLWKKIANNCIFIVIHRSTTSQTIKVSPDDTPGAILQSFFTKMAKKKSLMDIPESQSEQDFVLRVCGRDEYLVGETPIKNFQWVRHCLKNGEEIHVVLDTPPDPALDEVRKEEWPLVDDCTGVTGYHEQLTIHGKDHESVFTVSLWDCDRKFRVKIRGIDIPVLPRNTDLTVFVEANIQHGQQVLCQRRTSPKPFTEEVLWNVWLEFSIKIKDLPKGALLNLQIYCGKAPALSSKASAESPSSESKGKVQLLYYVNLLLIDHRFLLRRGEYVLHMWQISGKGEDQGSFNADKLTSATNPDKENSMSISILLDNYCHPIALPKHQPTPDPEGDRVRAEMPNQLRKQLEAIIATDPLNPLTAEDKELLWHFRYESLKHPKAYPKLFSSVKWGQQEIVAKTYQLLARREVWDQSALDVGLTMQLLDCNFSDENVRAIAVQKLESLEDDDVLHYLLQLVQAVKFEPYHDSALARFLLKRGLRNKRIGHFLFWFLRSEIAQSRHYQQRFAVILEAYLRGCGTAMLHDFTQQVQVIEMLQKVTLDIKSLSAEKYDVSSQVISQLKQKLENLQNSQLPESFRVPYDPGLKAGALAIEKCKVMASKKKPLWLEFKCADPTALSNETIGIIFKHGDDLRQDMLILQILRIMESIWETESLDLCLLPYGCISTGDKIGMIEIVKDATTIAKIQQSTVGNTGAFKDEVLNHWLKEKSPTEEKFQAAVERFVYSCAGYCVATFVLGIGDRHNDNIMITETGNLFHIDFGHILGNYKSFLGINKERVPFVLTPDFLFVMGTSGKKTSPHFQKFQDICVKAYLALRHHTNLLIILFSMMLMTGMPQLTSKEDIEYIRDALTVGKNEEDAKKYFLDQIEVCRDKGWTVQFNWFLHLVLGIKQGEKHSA
PI 4-kinase beta, sequence (Q9UBF8 whole entry): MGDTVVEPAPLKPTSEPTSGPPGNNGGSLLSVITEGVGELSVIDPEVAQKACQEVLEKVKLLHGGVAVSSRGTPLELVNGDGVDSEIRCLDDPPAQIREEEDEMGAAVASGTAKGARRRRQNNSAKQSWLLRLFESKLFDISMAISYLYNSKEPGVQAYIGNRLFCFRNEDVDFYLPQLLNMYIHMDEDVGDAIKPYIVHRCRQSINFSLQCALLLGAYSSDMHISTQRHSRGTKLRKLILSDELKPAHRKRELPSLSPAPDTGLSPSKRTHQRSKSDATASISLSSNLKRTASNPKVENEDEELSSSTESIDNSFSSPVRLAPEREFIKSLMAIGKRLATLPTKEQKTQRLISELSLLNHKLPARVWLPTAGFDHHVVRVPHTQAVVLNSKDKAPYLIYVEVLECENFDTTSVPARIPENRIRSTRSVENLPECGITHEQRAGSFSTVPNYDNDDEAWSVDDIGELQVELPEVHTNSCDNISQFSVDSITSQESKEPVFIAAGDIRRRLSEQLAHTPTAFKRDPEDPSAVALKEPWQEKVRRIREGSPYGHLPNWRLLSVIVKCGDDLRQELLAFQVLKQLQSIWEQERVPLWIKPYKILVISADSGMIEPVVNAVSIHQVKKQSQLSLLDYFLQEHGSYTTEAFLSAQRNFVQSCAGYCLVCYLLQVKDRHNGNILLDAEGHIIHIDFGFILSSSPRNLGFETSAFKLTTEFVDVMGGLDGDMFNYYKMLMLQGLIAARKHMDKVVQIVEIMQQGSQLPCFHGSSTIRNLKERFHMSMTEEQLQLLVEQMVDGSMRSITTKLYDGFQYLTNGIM

SMILES	pIC50 (PI 4-kinase beta)	pIC50 (Vps34)	pIC50 (PI 3-kinase beta [1])	pIC50 (PI 3-kinase beta [2])	pIC50 (mTOR)	pIC50 (PI 3-kinase delta [3]; read-out: Assay F PI3Kδ IC50)	pIC50 (PI 3-kinase delta [4])	pIC50 (PI 3-kinase gamma)	Assay M RLM CI(int) [5] [µL/min/mg]	pIC50 (PI 3-kinase alpha)	pIC50 (PI 3-kinase delta [3])
Cc1ncc(-c2nc(-c3cc(S(=O)(=O)NCCC(C)(C)O)ccc3C)cnc2N)s1 [Example 119.29]	5.58	6.24	5.04	6.04	6.23	7.15	6.33	–	–	–	–
Cc1ccc(S(=O)(=O)NCC(C)(C)O)cc1-c1cnc(N)c(-c2cnn(C)n2)n1 [Example 18, 3-[5-Amino-6-(2-methyl-2H-[1,2,3]triazol-4-yl)-pyrazin-2-yl]-N-(2-hydroxy-2-methyl-propyl)-4-methyl-benzenesulfonamide]	5.07	< 5.00	5.59	5.55	5.26	–	–	–	–	–	–
Cc1ncc(-c2nc(-c3cc(S(=O)(=O)N[C@H]4CC[C@H](O)CC4)ccc3C)cnc2N)s1 [Example 14, Trans-3-(5-Amino-6-(2-methylthiazol-5-yl)pyrazin-2-yl)-N-(4-hydroxycyclohexyl)-4-methylbenzenesulfonamide]	5.80	6.38	5.75	6.21	6.06	7.40	6.51	–	–	–	–
Cc1cc(-c2nc(-c3cc(S(=O)(=O)NCCN4CCOCC4)ccc3C)cnc2N)ccn1 [Example 129.28, 3-(5-amino-6-(2-methylpyridin-4-yl)pyrazin-2-yl)-4-methyl-N-(2-morpholinoethyl)benzenesulfonamide]	< 5.04	< 5.04	–	5.28	< 5.04	5.96	–	6.85	159	6.59	–
Cc1ccc(S(=O)(=O)NC2CCC(CO)CC2)cc1-c1cnc(N)c(-n2cncn2)n1 (stereo not shown) [Example 127.6]	< 5.00	< 5.00	–	5.66	< 5.00	5.82	–	6.80	20	6.41	–
Cc1cc(-c2nc(-c3cc(S(=O)(=O)NC[C@H](C)O)ccc3C)cnc2N)ccn1 [Example 129.9, (S)-3-(5-amino-6-(2-methylpyridin-4-yl)pyrazin-2-yl)-N-(2-hydroxypropyl)-4-methylbenzenesulfonamide]	< 5.04	< 5.04	–	5.16	< 5.04	6.03	–	7.35	20	6.38	–
Cc1ncc(-c2nc(-c3cc(S(=O)(=O)NCCCO)ccc3C)cnc2N)s1 [Example 10, 3-(5-Amino-6-(2-methylthiazol-5-yl)pyrazin-2-yl)-N-(3-hydroxypropyl)-4-methylbenzenesulfonamide]	5.72	6.68	5.20	6.05	5.73	7.22	6.22	–	–	–	–
Cc1ccc(S(=O)(=O)N2CC3(CC(O)C3)C2)cc1-c1cnc(N)c(-n2cncn2)n1 [Example 101, 2-(3-(5-Amino-6-(1H-1,2,4-triazol-1-yl)pyrazin-2-yl)-4-methylphenylsulfonyl)-2-azaspiro[3.3]heptan-6-ol]	5.62	< 5.00	–	5.77	< 5.00	5.52	–	6.68	39	5.70	–
Cc1ccc(S(=O)(=O)NCC(C)(C)O)cc1-c1cnc(N)c(-c2noc(C3CC3)n2)n1 [Example 91, 3-(5-Amino-6-(5-cyclopropyl-1,2,4-oxadiazol-3-yl)pyrazin-2-yl)-N-(2-hydroxy-2-methylpropyl)-4-methylbenzenesulfonamide]	< 5.02	< 5.02	–	5.59	< 5.02	5.68	–	6.57	46	5.63	–
Cc1cc(-c2nc(-c3cc(S(=O)(=O)N[C@@H]4CCC[C@H]4N)ccc3C)cnc2N)ccn1 [Example 129.39, 3-(5-amino-6-(2-methylpyridin-4-yl)pyrazin-2-yl)-N-((1R,2R)-2-aminocyclopentyl)-4-methylbenzenesulfonamide]	< 5.04	< 5.04	–	5.12	< 5.04	–	–	6.96	>924	6.14	6.04

The next lines start with the values.

pIC50 (PI 4-kinase beta)	pIC50 (Vps34)	pIC50 (PI 3-kinase beta [1])	pIC50 (PI 3-kinase beta [2])	pIC50 (mTOR)	pIC50 (PI 3-kinase delta [3]; read-out: Assay F PI3Kδ IC50)	pIC50 (PI 3-kinase delta [4])	pIC50 (PI 3-kinase gamma)	Assay M RLM CI(int) [5] [µL/min/mg]	pIC50 (PI 3-kinase alpha)	pIC50 (PI 3-kinase delta [3])	SMILES
5.80	6.49	5.47	6.57	5.74	7.52	5.91	–	–	–	–	Cc1ncc(-c2nc(-c3cc(S(=O)(=O)N[C@H]4CC[C@@H](O)CC4)ccc3C)cnc2N)s1 [Example 87, 3-(5-Amino-6-(2-methylthiazol-5-yl)pyrazin-2-yl)-N-((1s,4s)-4-hydroxycyclohexyl)-4-methylbenzenesulfonamide]
5.41	–	6.55	6.85	6.38	7.70	7.15	–	–	–	–	Cc1ccc(S(=O)(=O)NCC(C)(C)O)cc1-c1cnc(N)c(-c2nn(C)nc2C)n1 [Example 19, 3-[5-Amino-6-(2,5-dimethyl-2H-[1,2,3]triazol-4-yl)-pyrazin-2-yl]-N-(2-hydroxy-2-methyl-propyl)-4-methyl-benzenesulfonamide]
5.15	< 5.03	5.14	5.64	5.05	–	–	–	–	–	–	Cc1ccc(S(=O)(=O)NCC(C)(C)O)cc1-c1cnc(N)c(-n2cncn2)n1 [Example 6, 3-(5-Amino-6-(1H-1,2,4-triazol-1-yl)pyrazin-2-yl)-N-(2-hydroxy-2-methylpropyl)-4-methylbenzenesulfonamide]
< 5.04	< 5.04	–	< 5.04	< 5.04	5.18	–	6.70	755	< 5.04	–	Cc1cc(-c2nc(-c3cc(S(=O)(=O)NCC(C)(C)CN(C)C)ccc3C)cnc2N)ccn1 [Example 129.24, 3-(5-amino-6-(2-methylpyridin-4-yl)pyrazin-2-yl)-N-(3-(dimethylamino)-2,2-dimethylpropyl)-4-methylbenzenesulfonamide]
5.05	< 5.02	–	5.11	< 5.02	5.94	–	6.96	19	5.99	–	Cc1ccc(S(=O)(=O)NCC(N)=O)cc1-c1cnc(N)c(-n2cncn2)n1 [Example 133, 2-(3-(5-Amino-6-(1H-1,2,4-triazol-1-yl)pyrazin-2-yl)-4-methylphenylsulfonamido)acetamide]
< 5.04	< 5.04	–	5.27	5.22	5.92	–	6.85	>924	6.16	–	Cc1cc(-c2nc(-c3cc(S(=O)(=O)NCC(C)(C)N4CCOCC4)ccc3C)cnc2N)ccn1 [Example 129.29, 3-(5-amino-6-(2-methylpyridin-4-yl)pyrazin-2-yl)-4-methyl-N-(2-methyl-2-morpholinopropyl)benzenesulfonamide]
6.29	< 5.00	–	5.92	5.28	6.02	–	7.04	31	6.92	–	Cc1cc(C)c(S(=O)(=O)NCC(C)(C)O)cc1-c1cnc(N)c(-n2cncn2)n1 [Example 121, 5-(5-Amino-6-(1H-1,2,4-triazol-1-yl)pyrazin-2-yl)-N-(2-hydroxy-2-methylpropyl)-2,4-dimethylbenzenesulfonamide]
< 5.00	< 5.00	–	6.03	< 5.00	5.70	–	7.11	19	5.68	–	Cc1nnc(-c2nc(-c3cc(S(=O)(=O)NCC(C)(C)O)ccc3C)cnc2N)o1 [Example 90, 3-(5-Amino-6-(5-methyl-1,3,4-oxadiazol-2-yl)pyrazin-2-yl)-N-(2-hydroxy-2-methylpropyl)-4-methylbenzenesulfonamide]
5.71	6.41	5.46	6.00	6.04	–	–	–	–	–	–	Cc1ncc(-c2nc(-c3cc(S(=O)(=O)NCC(C)(C)O)ccc3C)cnc2N)s1 [Example 7, 3-(5-Amino-6-(2-methylthiazol-5-yl)pyrazin-2-yl)-N-(2-hydroxy-2-methylpropyl)-4-methylbenzenesulfonamide]
< 5.00	< 5.00	–	< 5.00	< 5.00	5.59	–	6.68	16	5.85	–	Cc1nc(C)c(-c2nc(-c3cc(S(=O)(=O)NCC(C)(C)O)ccc3C)cnc2N)s1 [Example 46.1, 3-(5-Amino-6-(2,4-dimethylthiazol-5-yl)pyrazin-2-yl)-N-(2-hydroxy-2-methylpropyl)-4-methylbenzenesulfonamide]
